Assay results reported in patent US6221914A, “Sulfonamide bridging compounds that inhibit tryptase activity” (Array Biopharma Inc., priority 1998, dated 2001).

Experiments:
Type in all cases: biochemical
[1] = target: T1, Bovine pancreatic Trypsin (Bos taurus, UniProt P00760); assay: Ki determination, bovine pancreatic trypsin (N-a-Benzoyl-L-Arg-pNA); settings: 50 mM Tris-HCl, pH 8.2, 20 mM CaCl2; read-out: Experimentally Determined Ki, Trypsin
T1 construct: from tissue; host or cells: bovine pancreas
T1 sequence (P00760 24-246): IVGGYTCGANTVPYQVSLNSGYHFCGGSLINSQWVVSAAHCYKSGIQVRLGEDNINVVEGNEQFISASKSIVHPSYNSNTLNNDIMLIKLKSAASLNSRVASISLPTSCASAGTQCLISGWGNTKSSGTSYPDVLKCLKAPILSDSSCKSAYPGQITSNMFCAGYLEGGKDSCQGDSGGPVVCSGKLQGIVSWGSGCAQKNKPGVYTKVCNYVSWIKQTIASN
Method in brief: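 TPCK-treated bovine trypsin was preincubated with compound for 15 min at 37° C in 50 mM Tris-HCl pH 8.2, 20 mM CaCl2, then N-a-Benzoyl-L-Arg-pNA was added and p-nitroaniline read at 405 nm. Ki came from the tight-binding equation, with [E]o from active-site titration and a substrate correction, or from competitive-inhibitor equations when Ki >>[E]o.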

Human plasma thrombin = target: T2, Human plasma thrombin (Homo sapiens, UniProt P00734); assay: Ki determination, human plasma thrombin (H-D-Phe-Pip-Arg-pNA); settings: 50 mM Tris-HCl, pH 8.3, 100 mM NaCl, 1% BSA; read-out: Experimentally Determined Ki, Thrombin
T2 construct: from tissue; host or cells: human plasma
Method in brief: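 Plasma thrombin preincubated with compound 15 min at 37 °C in 50 mM Tris-HCl pH 8.3, 100 mM NaCl, 1% BSA, then H-D-Phe-Pip-Arg-pNA added; p-nitroaniline release read at 405 nm. Ki from tight-binding equation (active-site-titrated enzyme) corrected for substrate, or competitive-inhibitor equation when Ki >> [E]o.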

Human plasma factor Xa = target: T3, Human plasma factor Xa (Homo sapiens, UniProt P00742); assay: Ki determination, human plasma factor Xa (N-Benzoyl-Ile-Glu-Gly-Arg-pNA); settings: 50 mM Tris-HCl, pH 7.8, 200 mM NaCl, 0.05% BSA; read-out: Experimentally Determined Ki, Factor Xa
T3 construct: from tissue; host or cells: human plasma
Method in brief: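 Enzyme preincubated with compound 15 min at 37° C in 50 mM Tris-HCl pH 7.8, 200 mM NaCl, 0.05% BSA, then N-Benzoyl-Ile-Glu-Gly-Arg-pNA added and p-nitroaniline read at 405 nm. Ki from tight-binding equation with active-site-titrated enzyme, corrected for substrate, or from competitive-inhibitor equations when Ki >> [E]o.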

r-tissue kallikrein = r-tissue kallikrein (Homo sapiens, UniProt P06870); assay: Ki determination, r-tissue kallikrein (DL-Val-Leu-Arg-pNA); settings: 50 mM Tris-HCl, pH 7.8, 200 mM NaCl, 0.05% BSA; read-out: Experimentally Determined Ki, Tissue Kallikrein
Method in brief: (§1)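 Enzyme preincubated with test compound 15 min at 37° C in 50 mM Tris-HCl pH 7.8, 200 mM NaCl, 0.05% BSA; residual activity read at 405 nm after adding H-D-Prolyl-Phe-Arg-pNA (plasma) or DL-Val-Leu-Arg-pNA (tissue). Ki from tight-binding equation (enzyme active-site titrated) corrected for substrate, or competitive-inhibitor equation when Ki >>[E]o.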

Human plasma kallikrein = target: T4, Human plasma kallikrein (Homo sapiens, UniProt P03952); assay: Ki determination, human plasma kallikrein (H-D-Prolyl-Phe-Arg-pNA); settings: 50 mM Tris-HCl, pH 7.8, 200 mM NaCl, 0.05% BSA; read-out: Experimentally Determined Ki, Plasma Kallikrein
T4 construct: from tissue; host or cells: human plasma
Method in brief: as §1

Human plasma plasmin = target: T5, Human plasma plasmin (Homo sapiens, UniProt P00747); assay: Ki determination, human plasma plasmin (Tosyl-Gly-Pro-Lys-pNA); settings: 100 mM Tris-HCl, pH 7.4, 100 mM NaCl, 0.05% Triton X-100; read-out: Experimentally Determined Ki, Plasmin
T5 construct: from tissue; host or cells: human plasma
Method in brief: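 Enzyme preincubated with inhibitor 15 min at 37° C. in 100 mM Tris-HCl pH 7.4, 100 mM NaCl, 0.05% Triton X-100, then Tosyl-Gly-Pro-Lys-pNA added; p-nitroaniline release followed at 405 nm. Ki from tight-binding equation (active-site-titrated [E]o), corrected for substrate, or competitive-inhibitor equation when Ki >>[E]o.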

[2] = target: T6, Human Neutrophil Cathepsin G (Homo sapiens, UniProt P08311); assay: Ki determination, human neutrophil cathepsin G (N-Suc-Ala-Ala-Pro-Phe-pNA); settings: 625 mM Tris-HCl, pH 7.5, 2.5 mM MgCl2, 0.125% Brij 35; read-out: Experimentally Determined Ki, Cathepsin G
T6 construct: from tissue; host or cells: human neutrophils
T6 sequence (P08311 21-255): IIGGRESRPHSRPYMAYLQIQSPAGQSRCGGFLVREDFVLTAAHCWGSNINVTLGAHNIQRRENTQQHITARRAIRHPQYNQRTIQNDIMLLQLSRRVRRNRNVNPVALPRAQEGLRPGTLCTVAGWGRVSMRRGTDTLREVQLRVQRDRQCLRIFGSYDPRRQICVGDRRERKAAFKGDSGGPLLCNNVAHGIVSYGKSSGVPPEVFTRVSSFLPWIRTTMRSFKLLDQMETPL
Method in brief: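 Cathepsin G preincubated with test compound 15 min at 37° C, then N-Suc-Ala-Ala-Pro-Phe-pNA added in 625 mM Tris-HCl pH 7.5, 2.5 mM MgCl2, 0.125% Brij 35. p-Nitroaniline read at 405 nm.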

[3] = target: T7, Bovine Pancreatic Chymotrypsin (Bos taurus, UniProt P00766); assay: Ki determination, bovine pancreatic chymotrypsin (N-Suc-Ala-Ala-Pro-Phe-pNA); settings: 100 mM Tris-HCl, pH 7.8, 10 mM CaCl2; read-out: Experimentally Determined Ki, Chymotrypsin
T7 construct: from tissue; host or cells: bovine pancreas
Method in brief: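 Enzyme was preincubated with test compound for 15 min at 37° C before N-Suc-Ala-Ala-Pro-Phe-pNA was added, in 100 mM Tris-HCl, pH 7.8, 10 mM CaCl2. p-Nitroaniline release was read at 405 nm. Ki came from the tight-binding equation with [E]o set by active-site titration and corrected for substrate, or from competitive-inhibitor equations when Ki >>[E]o.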

T4 sequence (P03952 391-638 limits assumed): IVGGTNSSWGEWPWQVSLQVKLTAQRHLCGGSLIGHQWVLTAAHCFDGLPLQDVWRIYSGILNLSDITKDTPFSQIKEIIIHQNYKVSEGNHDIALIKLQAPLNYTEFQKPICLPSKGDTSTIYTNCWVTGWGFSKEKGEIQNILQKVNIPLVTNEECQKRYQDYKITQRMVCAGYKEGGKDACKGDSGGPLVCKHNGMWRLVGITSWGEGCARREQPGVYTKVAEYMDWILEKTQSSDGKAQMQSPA
T4 sequence (P03952 20-390 partner limits assumed): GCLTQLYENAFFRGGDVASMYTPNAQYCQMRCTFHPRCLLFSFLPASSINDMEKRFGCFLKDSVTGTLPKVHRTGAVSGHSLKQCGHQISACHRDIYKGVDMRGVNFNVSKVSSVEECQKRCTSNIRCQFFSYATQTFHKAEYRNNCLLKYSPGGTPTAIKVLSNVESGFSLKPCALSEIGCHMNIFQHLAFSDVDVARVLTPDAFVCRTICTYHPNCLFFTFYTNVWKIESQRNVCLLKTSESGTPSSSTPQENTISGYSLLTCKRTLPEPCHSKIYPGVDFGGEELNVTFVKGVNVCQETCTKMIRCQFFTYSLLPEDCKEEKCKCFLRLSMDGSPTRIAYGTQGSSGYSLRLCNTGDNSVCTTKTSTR
Chain of r-tissue kallikrein (P06870 25-262): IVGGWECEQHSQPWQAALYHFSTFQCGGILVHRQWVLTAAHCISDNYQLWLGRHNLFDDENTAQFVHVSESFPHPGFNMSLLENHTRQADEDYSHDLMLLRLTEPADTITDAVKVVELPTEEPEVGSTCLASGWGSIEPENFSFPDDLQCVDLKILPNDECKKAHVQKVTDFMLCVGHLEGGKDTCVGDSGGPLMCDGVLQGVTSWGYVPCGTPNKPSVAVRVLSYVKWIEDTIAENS
T5 sequence (P00747 581-810 limits assumed): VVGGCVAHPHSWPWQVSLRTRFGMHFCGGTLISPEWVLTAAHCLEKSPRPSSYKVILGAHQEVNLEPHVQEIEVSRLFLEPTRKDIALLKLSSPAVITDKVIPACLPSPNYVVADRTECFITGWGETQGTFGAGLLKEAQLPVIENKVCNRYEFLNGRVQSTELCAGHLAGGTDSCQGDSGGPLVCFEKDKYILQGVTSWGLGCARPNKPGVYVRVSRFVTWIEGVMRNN
T5 sequence (P00747 97-580 partner limits assumed): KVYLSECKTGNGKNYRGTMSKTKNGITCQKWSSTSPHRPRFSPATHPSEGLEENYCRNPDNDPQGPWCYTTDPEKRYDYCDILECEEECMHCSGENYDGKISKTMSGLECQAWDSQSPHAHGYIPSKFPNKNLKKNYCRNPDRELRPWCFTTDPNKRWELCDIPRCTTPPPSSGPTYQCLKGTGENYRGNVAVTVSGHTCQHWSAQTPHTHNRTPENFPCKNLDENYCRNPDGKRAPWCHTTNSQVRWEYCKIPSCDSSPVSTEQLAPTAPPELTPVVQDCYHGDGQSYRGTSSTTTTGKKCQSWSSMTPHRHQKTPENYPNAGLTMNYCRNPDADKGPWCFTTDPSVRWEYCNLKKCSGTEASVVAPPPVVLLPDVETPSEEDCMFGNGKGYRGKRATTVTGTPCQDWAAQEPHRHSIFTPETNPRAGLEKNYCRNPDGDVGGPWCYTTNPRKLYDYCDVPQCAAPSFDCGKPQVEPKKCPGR
T3 sequence (P00742 235-488 limits assumed): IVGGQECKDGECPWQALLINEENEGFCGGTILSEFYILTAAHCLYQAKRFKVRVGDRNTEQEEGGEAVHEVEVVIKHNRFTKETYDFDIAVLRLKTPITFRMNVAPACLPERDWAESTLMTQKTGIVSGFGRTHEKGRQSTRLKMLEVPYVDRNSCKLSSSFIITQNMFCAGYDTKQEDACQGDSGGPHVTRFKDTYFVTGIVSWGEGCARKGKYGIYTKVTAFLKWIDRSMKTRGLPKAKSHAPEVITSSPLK
T3 sequence (P00742 41-179 partner limits assumed): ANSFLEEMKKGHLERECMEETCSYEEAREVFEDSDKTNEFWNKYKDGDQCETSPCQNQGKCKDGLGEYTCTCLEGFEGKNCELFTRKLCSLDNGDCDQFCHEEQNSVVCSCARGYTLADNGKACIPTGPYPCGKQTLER

Row | Ki [1] [µM] | Ki (Human plasma thrombin) [µM] | Ki (Human plasma factor Xa) [µM] | Ki (r-tissue kallikrein) [µM] | Ki (Human plasma kallikrein) [µM] | Ki (Human plasma plasmin) [µM] | Ki [2] [µM] | Ki [3] [µM] | SMILES
1 | 2.1 | > 100 | 10 | > 100 | 1.4 | 0.34 | > 100 | > 100 | N=C(N)c1ccc(C(=O)NCc2ccc(OCCCOc3ccc(CNS(=O)(=O)c4cccc(C(=N)N)c4)cc3)cc2)cc1 [Example 86, 4-Carbamimidoyl-N-[4-(3-{4-[(3-carbamimidoyl-benzenesulfonylamino)-methyl]-phenoxy}-propoxy)-benzyl]-benzamide]
2 | 2.8 | > 100 | 19 | > 100 | 3.5 | 7.6 | > 100 | > 100 | N=C(N)c1ccc(C(=O)NCc2ccc(OCCCOc3ccc(CNC(=O)c4ccc(CN)cc4)cc3)cc2)cc1 [Example 87, N-[4-(3-{4-[(4-Aminomethyl-benzoylamino)-methyl]-phenoxy}-propoxy)-benzyl]-4-carbamimidoyl-benzamide]
3 | 1.5 | > 100 | 15 | 14 | 3.9 | 6.7 | > 100 | > 100 | N=C(N)c1ccc(C(=O)NCc2ccc(OCC3(COc4ccc(CNC(=O)c5ccc(C(=N)N)cc5)cc4)CCC3)cc2)cc1 [Example 93, 1,1-Bis-{4-[(4-carbamimidoyl-benzoyl-amino)-methyl]-phenoxy-methyl}-cyclobutane]
4 | 0.15 | > 100 | > 100 | > 100 | > 100 | 0.74 | > 100 | 18 | N=C(N)c1ccc2cc(C(=O)NCc3ccc(OCCOc4ccc(CNC(=O)c5ccc6cc(C(=N)N)ccc6c5)cc4)cc3)ccc2c1 [Example 100, 1,2-Bis-{4-[(6-carbamimidoylnaphthalene-2-carbonylamino)-methyl]-phenoxy}-ethane]
5 | 4.8 | > 100 | 27 | > 100 | 12 | 2.1 | > 100 | 26 | N=C(N)c1ccc2[nH]c(CC(=O)NCc3ccc(OCCCOc4ccc(CNC(=O)Cc5nc6cc(C(=N)N)ccc6[nH]5)cc4)cc3)nc2c1 [Example 107, 2-(5-Carbamimidoyl-1H-benzoimidazol-2-yl)-N-{4,-[3-(4-{2-(5-carbamimidoyl-1H-benzoimidazol-2-yl)acetylaminol-methyl}-phenoxy)-propoxy]-benzyl}-acetamide]
6 | 11.4 | > 100 | 40 | > 100 | 2.5 | 0.11 | > 100 | 14.7 | N=C(N)c1ccc2[nH]c(CC(=O)NCc3ccc(OCCCCOc4ccc(CNC(=O)Cc5nc6cc(C(=N)N)ccc6[nH]5)cc4)cc3)nc2c1 [Example 109]
7 | 13 | > 100 | 59 | > 100 | > 100 | 50 | > 100 | 40 | N=C(N)c1ccc2sc(C(=O)NCc3ccc(OCCCOc4ccc(CNC(=O)c5cc6cc(C(=N)N)ccc6s5)cc4)cc3)cc2c1 [Example 117, 1,3-Bis-{4-[(5-carbamidoyl-2-benzthiophenyl-carbamido)-methyl]-phenoxy}-propane]

Row | SMILES | Ki [1] [µM] | Ki (Human plasma thrombin) [µM] | Ki (Human plasma factor Xa) [µM] | Ki (r-tissue kallikrein) [µM] | Ki (Human plasma kallikrein) [µM] | Ki (Human plasma plasmin) [µM] | Ki [2] [µM] | Ki [3] [µM]
8 | N=C(N)c1ccc2[nH]c(CC(=O)NCc3ccc(OCCCCCOc4ccc(CNC(=O)Cc5nc6cc(C(=N)N)ccc6[nH]5)cc4)cc3)nc2c1 [Example 108] | 3.6 | > 100 | 19 | > 100 | 4.3 | 1.4 | > 100 | > 100
